US20040116420A1 (priority 2001, published 2004)

Tests used:
[1] = tested on: HSV-1; assay: Antiviral activity, HSV-1 in Vero cells, plaque method; format: cell-based; conditions: Human alphaherpesvirus 1, 20 hours, 90% inhibition of plaque formation
Outline: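 This is a virus-yield read-out. The culture medium was frozen at −80° C and thawed, and the plaques it formed were counted. It came from Vero monolayers infected with 50,000 pfu HSV-1 and then exposed to the compound for 20 h at 37° C. EC90 is the concentration inhibiting 90% of plaque formation relative to the untreated infected control.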

[2] = tested on: Vero cells; assay: Cytotoxicity, Vero cells, Alamar Blue; format: cell-based; conditions: 25 μM, 20 hours
Outline: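 Living-cell ratio versus untreated control was read by Alamar Blue absorbance after about 6 h of dye incubation. Before that, Vero cells had received 25 μM test compound in 2% FBS-DMEM for 20 hours at 37 °C under 5% CO2.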

[3] = target: T1, HSV-1 protease (Human herpesvirus 1, UniProt P10210); assay: Enzymatic assay for HSV-1 protease (assembly) inhibitor, fluorescence polarization; format: biochemical; conditions: read-out: HSV-1 Enzyme inhibition IC50
T1 construct: 6xHis (N); made in house; host or cells: baculovirus expression system
T1 sequence (P10210 1-247): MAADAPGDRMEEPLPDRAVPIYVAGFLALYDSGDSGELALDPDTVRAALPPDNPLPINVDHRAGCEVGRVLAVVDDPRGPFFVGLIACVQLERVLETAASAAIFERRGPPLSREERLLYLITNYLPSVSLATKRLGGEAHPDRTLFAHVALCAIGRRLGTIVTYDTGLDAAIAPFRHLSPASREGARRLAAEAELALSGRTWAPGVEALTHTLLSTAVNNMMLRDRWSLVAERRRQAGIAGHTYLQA
Outline: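 Fluorescence polarization read-out: after avidin stop, cleavage of a biotinylated DTAF-labelled release-site peptide by recombinant N-His6 HSV-1 protease was compared with no-inhibitor wells. Enzyme and compound were preincubated 30 min, then substrate reacted 60 min, all at room temperature, pH 7.4 citrate buffer with TCEP.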

SMILES | EC90 [1] [µM] | Cell viability (% of control) [2] [%] | IC50 [3] [nM]
Cc1c(NC(=O)OC(C)(C)C)ccc2nc(N3Cc4ccccc4C[C@H]3C(=O)NCc3ccccn3)oc(=O)c12 [Compound No.94, (5-Methyl-4-oxo-2-{3S-[(pyridin-2-ylmethyl)-carbamoyl]-3,4-dihydro-1H-isoquinolin-2-yl}-4H-benzo[d][1,3]oxazin-6-yl)-carbamic acid tert-butyl ester] | 5.4 | 55.2 | 2300
Cc1c(NC(=O)OC(C)(C)C)ccc2nc(N[C@H](C(=O)NCCc3ccccn3)C(C)C)oc(=O)c12 [Compound No.26, {5-Methyl-2-[2-methyl-1S-(2-pyridin-2-ylethylcarbamoyl)-propylamino]-4-oxo-4H-benzo[d][1,3]oxazin-6-yl}-carbamic acid tert-butyl ester] | 13 | 107.0 | 3200
Cc1c(NC(=O)c2cccc(C#N)c2)ccc2nc(NC(C)(C)C(=O)N(C)CCc3ccccn3)oc(=O)c12 [Compound No.143, 3-Cyano-N-(5-methyl-2-{1-methyl-1-[methyl-(2-pyridin-2-yl-ethyl)-carbamoyl]-ethylamino}-4-oxo-4H-benzo[d][1,3]oxazin-6-yl)-benzamide] | > 12.5 | 86.9 | 3700
Cc1c(NC(=O)OC(C)(C)C)ccc2nc(N[C@@H](Cc3ccccc3)C(=O)NCc3cccnc3)oc(=O)c12 [Compound No.30, (5-Methyl-4-oxo-2-{2-phenyl-1S-[(pyridin-3-ylmethyl)-carbamoyl]-ethylamino}-4H-benzo[d][1,3]oxazin-6-yl)-carbamic acid tert-butyl ester] | 23.8 | 98.6 | 700
Cc1c(NC(=O)OC(C)(C)C)ccc2nc(N3Cc4ccccc4C[C@H]3C(=O)NCc3ccncc3)oc(=O)c12 [Compound No.96, (5-Methyl-4-oxo-2-{3S-[(pyridin-4-ylmethyl)-carbamoyl]-3,4-dihydro-1H-isoquinolin-2-yl}-4H-benzo[d][1,3]oxazin-6-yl)-carbamic acid tert-butyl ester] | 11.2 | 55.4 | 5500
Cc1c(NC(=O)OC(C)(C)C)ccc2nc(N3Cc4ccccc4C[C@H]3C(=O)N(C)CCc3cccnc3)oc(=O)c12 [Compound No.100, (5-Methyl-2-{3S-[methyl-(2-pyridin-3-yl-ethyl)-carbamoyl]-3,4-dihydro-1H-isoquinolin-2-yl}-4-oxo-4H-benzo[d][1,3]oxazin-6-yl)-carbamic acid tert-butyl ester] | 11.8 | 44.1 | 9700
Cc1c(NC(=O)c2ccc([N+](=O)[O-])cc2)ccc2nc(NC(C)(C)C(=O)N(C)CCc3ccccn3)oc(=O)c12 [Compound No.142, N-(5-Methyl-2-{1-methyl-1-[methyl-(2-pyridin-2-yl-ethyl)-carbamoyl]-ethylamino}-4-oxo-4H-benzo[d][1,3]oxazin-6-yl)-4-nitro-benzamide] | 10.4 | 61.0 | 1300
Cc1c(NC(=O)OC(C)(C)C)ccc2nc(N[C@@H](CC3CCCCC3)C(=O)N(C)Cc3ccccn3)oc(=O)c12 [Compound No.63, {2-[2-Cyclohexyl-1S-(methyl-pyridin-2-ylmethyl-carbamoyl)-ethylamino]-5-methyl-4-oxo-4H-benzo[d][1,3]oxazin-6-yl}-carbamic acid tert-butyl ester] | < 3.2 | 60.1 | 1200
Cc1c(NC(=O)c2ccccc2I)ccc2nc(NC(C)(C)C(=O)N(C)CCc3ccccn3)oc(=O)c12 [Compound No.155, 2-Iodo-N-(5-methyl-2-{1-methyl-1-[methyl-(2-pyridin-2-yl-ethyl)-carbamoyl]-ethylamino}-4-oxo-4H-benzo[d][1,3]oxazin-6-yl)-benzamide] | > 12.5 | 69.1 | 1500
Cc1c(NC(=O)OC(C)(C)C)ccc2nc(NC(C)(C)C(=O)NCCc3ccccn3)oc(=O)c12 [Compound No.35, {5-Methyl-2-[1-methyl-1-(2-pyridin-2-ylethylcarbamoyl)-ethylamino]-4-oxo-4H-benzo[d][1,3]oxazin-6-yl}-carbamic acid tert-butyl ester] | > 25 | 110.0 | 1600
Cc1c(NC(=O)OC(C)(C)C)ccc2nc(N[C@H](C(=O)N(C)CCc3ccccn3)C(C)C)oc(=O)c12 [Compound No.45, (5-Methyl-2-{2-methyl-1S-[methyl-(2-pyridin-2-yl-ethyl)-carbamoyl]-propylamino}-4-oxo-4H-benzo[d][1,3]oxazin-6-yl)-carbamic acid tert-butyl ester] | 6.6 | 107.0 | 1700
COc1cc(OC)cc(C(=O)Nc2ccc3nc(NC(C)(C)C(=O)N(C)CCc4ccccn4)oc(=O)c3c2C)c1 [compound 191, 3,5-Dimethoxy-N-(5-methyl-2-{1-methyl-1-[methyl-(2-pyridin-2-yl-ethyl)-carbamoyl]-ethylamino}-4-oxo-4H-benzo[d][1,3]oxazin-6-yl)-benzamide] | > 12.5 | 89.1 | 600
Cc1c(NC(=O)c2cccc(C(Cl)Cl)c2)ccc2nc(NC(C)(C)C(=O)N(C)CCc3ccccn3)oc(=O)c12 [Compound No.183, 3-Dichloromethyl-N-(5-methyl-2-{1-methyl-1-[methyl-(2-pyridin-2-yl-ethyl)-carbamoyl]-ethylamino}-4-oxo-4H-benzo[d][1,3]oxazin-6-yl)-benzamide] | > 12.5 | 101.0 | 1300
Cc1c(NC(=O)c2ccccc2)ccc2nc(NC(C)(C)C(=O)N(C)CCc3ccccn3)oc(=O)c12 [Compound No.138, N-(5-Methyl-2-{1-methyl-1-[methyl-(2-pyridin-2-yl-ethyl)-carbamoyl]-ethylamino}-4-oxo-4H-benzo[d][1,3]oxazin-6-yl)-benzamide] | > 12.5 | 84.4 | 2800
Cc1c(NC(=O)OC(C)(C)C)ccc2nc(N[C@@H](CC(C)C)C(=O)N(C)CCc3ccncc3)oc(=O)c12 [Compound No.54, (5-Methyl-2-{3-methyl-1S-[methyl-(2-pyridin-4-yl-ethyl)-carbamoyl]-butylamino}-4-oxo-4H-benzo[d][1,3]oxazin-6-yl)-carbamic acid tert-butyl ester] | 6.2 | 62.8 | 1800
COc1ccc(C(=O)Nc2ccc3nc(NC(C)(C)C(=O)N(C)CCc4ccccn4)oc(=O)c3c2C)cc1 [Compound No.163, 4-Methoxy-N-(5-methyl-2-{1-methyl-1-[methyl-(2-pyridin-2-yl-ethyl)-carbamoyl]-ethylamino}-4-oxo-4H-benzo[d][1,3]oxazin-6-yl)-benzamide] | 10.7 | 66.0 | 1300
Cc1c(NC(=O)OC(C)(C)C)ccc2nc(N3Cc4ccccc4C[C@H]3C(=O)N(C)CCc3ccccn3)oc(=O)c12 [Compound No.99, (5-Methyl-2-{3S-[methyl-(2-pyridin-2-yl-ethyl)-carbamoyl]-3,4-dihydro-1H-isoquinolin-2-yl}-4-oxo-4H-benzo[d][1,3]oxazin-6-yl)-carbamic acid tert-butyl ester] | 10.1 | 53.2 | 5200
Cc1c(NC(=O)c2ccc(C(F)(F)F)cc2)ccc2nc(NC(C)(C)C(=O)N(C)CCc3ccccn3)oc(=O)c12 [Compound No.146, N-(5-Methyl-2-{1-methyl-1-[methyl-(2-pyridin-2-yl-ethyl)-carbamoyl]-ethylamino}-4-oxo-4H-benzo[d][1,3]oxazin-6-yl)-4-trifluoromethyl-benzamide] | 5.6 | 18.0 | 1200
Cc1c(NC(=O)OC(C)(C)C)ccc2nc(N[C@H](C(=O)NCc3ccncc3)C(C)C)oc(=O)c12 [Compound No.25, (5-Methyl-2-{2-methyl-1S-[(pyridin-4-ylmethyl)-carbamoyl]-propylamino}-4-oxo-4H-benzo[d][1,3]oxazin-6-yl)-carbamic acid tert-butyl ester] | > 25 | 100.0 | > 20000
CC(=O)OC(C(=O)Nc1ccc2nc(NC(C)(C)C(=O)N(C)CCc3ccccn3)oc(=O)c2c1C)c1ccccc1 (stereo not drawn) [Compound No.192, Acetic acid (5-methyl-2-{1-methyl-1-[methyl-(2-pyridin-2-yl-ethyl)-carbamoyl]-ethylamino}-4-oxo-4H-benzo[d][1,3]oxazin-6-ylcarbamoyl)-phenyl-methyl ester] | > 12.5 | 93.9 | 7200
CCCCCc1ccc(C(=O)Nc2ccc3nc(NC(C)(C)C(=O)N(C)CCc4ccccn4)oc(=O)c3c2C)cc1 [Compound No.185, N-(5-Methyl-2-{1-methyl-1-[methyl-(2-pyridin-2-yl-ethyl)-carbamoyl]-ethylamino}-4-oxo-4H-benzo[d][1,3]oxazin-6-yl)-4-pentyl-benzamide] | 3.5 | 29.0 | 7000
